Laboratory results from PMC10903759 (Journal of Genetic Engineering & Biotechnology, 2024).
Where no end group is shown, it is not given here.

Test system: leaf rust (Puccinia triticina, CCDS-96-14-1 isolate) urediniospores
Format: cell-based

KEICCKELTKPVKCSSDPLCQKLCMEKEKYEDGHCFTILSKCLCMKRCNAKTLATELLA (disulfide (positions not given here)) [CaThi]
germination rate of urediniospores: 22.73 % ± 7.39
